Measured values published in ChEMBL document CHEMBL1201862, “PubChem BioAssay data set” (2004).
The source made the active and inactive calls.

Columns and labels:
DNA topoisomerase = DNA topoisomerase (Yersinia pestis, UniProt A0A2S9PM60); assay: Y. pestis Topo-I inhibitors, cleavage product readout, dose response, biochemical, cherry-pick (AID 588525)
INS1 [1] = assay: protection from cytokine-driven beta-cell apoptosis, dose response, JC-1 fluorescence, INS-1E, dry powder, set 2 (AID 488867); type: functional, cell-based; details: Rattus norvegicus
INS1 [2] = assay: protection from cytokine-induced mitochondrial depolarization, dose response, cell-based, INS-1E, JC-1 fluorescence ratio, dry powder (AID 488931); type: functional; details: Rattus norvegicus

DNA topoisomerase, sequence (A0A2S9PM60 whole entry): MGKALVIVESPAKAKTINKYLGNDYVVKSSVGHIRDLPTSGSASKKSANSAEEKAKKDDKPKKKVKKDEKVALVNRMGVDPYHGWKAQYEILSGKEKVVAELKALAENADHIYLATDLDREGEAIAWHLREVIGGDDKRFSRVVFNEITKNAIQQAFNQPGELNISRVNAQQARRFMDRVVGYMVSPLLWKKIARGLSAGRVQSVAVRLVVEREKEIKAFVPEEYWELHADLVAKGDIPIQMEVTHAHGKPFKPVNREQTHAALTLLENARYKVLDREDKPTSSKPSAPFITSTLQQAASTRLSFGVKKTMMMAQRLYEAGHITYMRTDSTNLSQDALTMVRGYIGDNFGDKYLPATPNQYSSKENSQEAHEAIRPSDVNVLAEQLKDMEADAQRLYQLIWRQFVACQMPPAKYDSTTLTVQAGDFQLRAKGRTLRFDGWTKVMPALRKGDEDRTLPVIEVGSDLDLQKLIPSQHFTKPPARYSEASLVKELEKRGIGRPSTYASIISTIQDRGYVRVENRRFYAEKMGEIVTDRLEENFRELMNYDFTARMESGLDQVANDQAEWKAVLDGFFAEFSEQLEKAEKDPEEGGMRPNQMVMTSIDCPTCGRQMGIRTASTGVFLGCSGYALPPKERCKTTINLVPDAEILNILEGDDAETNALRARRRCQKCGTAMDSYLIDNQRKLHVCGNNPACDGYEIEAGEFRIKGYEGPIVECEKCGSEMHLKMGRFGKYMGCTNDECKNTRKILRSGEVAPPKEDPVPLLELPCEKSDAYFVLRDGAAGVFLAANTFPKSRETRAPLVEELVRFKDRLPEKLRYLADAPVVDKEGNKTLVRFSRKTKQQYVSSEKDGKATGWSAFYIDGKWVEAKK

Compound	AC50 (DNA topoisomerase)	AC50 (INS1 [1])	AC50 (INS1 [2])
O=C(Nc1ccccc1Cl)OCC#CCOC(=O)Nc1ccccc1Cl	12.6 µM (active)		
COc1ccc(S(=O)(=O)N(C)C[C@@H]2Oc3c(NC(=O)Nc4cccc5ccccc45)cccc3C(=O)N([C@@H](C)CO)C[C@H]2C)cc1OC		116 µM (active)	85 µM (active)
